Test results published in PubChem BioAssay (NCI).
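Step 1: Grow cells in 96-well plates. Step 2: Expose to compound for 48 hours at 5 concentrations. Step 3: Interpolate endpoints linearly; if unreached, use highest concentration. GI50: concentration for 50% inhibition of growth. TGI: total growth inhibition.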 Residues, ends and D or L forms follow the SMILES beside them. *: point of attachment. Cbz = O=C(OCc1ccccc1)*

Legend:
Assay in all cases: growth of human tumour cells (NCI), 48 h
[1] = test system: LOX IMVI melanoma
[2] = test system: SK-MEL-5 melanoma
[3] = test system: SNB-19 CNS
[4] = test system: SW-620 colon
[5] = test system: A498 renal
[6] = test system: OVCAR-3 ovarian
[7] = test system: K-562 leukemia
[8] = test system: OVCAR-5 ovarian
[9] = test system: UACC-257 melanoma
[10] = test system: BT-549 breast

SMILES	GI50 [1] [µM]	TGI [1] [µM]	GI50 [2] [µM]	TGI [2] [µM]	GI50 [3] [µM]	TGI [3] [µM]	GI50 [4] [µM]	TGI [4] [µM]	GI50 [5] [µM]	TGI [5] [µM]	GI50 [6] [µM]	TGI [6] [µM]	GI50 [7] [µM]	TGI [7] [µM]	GI50 [8] [µM]	TGI [8] [µM]	GI50 [9] [µM]	TGI [9] [µM]	GI50 [10] [µM]	TGI [10] [µM]
CC(C)C[C@@H](C=O)NC(=O)[C@H](CC(C)C)NC(=O)[C@H](CC(C)C)NC(=O)OCc1ccccc1 (Cbz-Leu-Leu-Leu-aldehyde)	0.206	0.46	0.349	1.08	0.829	> 100	0.355	2.07	0.424	2.22	0.225	0.538	0.368	> 100	0.643	4.74	0.251	0.628	0.337	1.25
N#Cc1c(N/N=C\c2ccc(Cl)cc2)nc(N)nc1N1CCOCC1	21.6	62.4	19	> 100	> 100	> 100	47.1	> 100	25.5	69.2	22.5	60.5	13	32.3	> 100	> 100	32.2	> 100	> 100	> 100
O=[N+]([O-])c1oc2ccc3ccccc3c2c1CCO	–	9.52	–	1.98	–	68.4	–	40.2	–	0.72	–	58.5	–	> 100	–	34.9	–	4.2	–	8.71
CC(=O)OCCCC#CC#Cc1cccc(=O)o1	15.8	54	16.1	32.6	25.6	67.7	13.6	37.5	23.9	39.4	2.89	14.2	5.38	28.9	22.3	42.4	23.8	55.6	10.6	26.6
COc1ccc(OC)c(/C=C/c2ccnc3ccccc23)c1	–	14.4	–	12.9	–	13.2	–	16.2	–	3.8	–	1.76	–	2.06	–	16	–	18.8	–	14.4
NC(N)=Nc1ccc(/C=C2\C=Cc3ccccc32)cc1	1.63	3.02	4.5	17.8	6.32	32.5	1.83	3.82	4.83	19.2	3.05	8.93	2.66	> 22	2.61	6.77	4.99	18.3	3.98	26.5
CCOC(=O)c1cc(NS(=O)(=O)c2ccc(C)cc2)cc(C(=O)OCC)c1	61.4	> 100	31	> 100	76.1	> 100	> 100	> 100	34.3	> 100	34.5	> 100	40.2	> 100	37.9	> 100	45.5	> 100	34.8	> 100
COc1ccc(Cn2cc3c(c2-c2cc(OC)c(OC)c(OC)c2)CCc2c(CO)noc2-3)cc1	0.615	16.6	0.334	11.9	0.43	21.4	0.381	> 100	0.187	3.03	0.312	12.9	0.313	> 100	0.543	> 82.3	16.5	50.2	0.608	7.34
Cc1[nH]nc2ncc(C(=O)N3CCC[C@H]3c3ccc(Cl)cc3)cc12	47.2	> 100	31	> 100	> 100	> 100	76	> 100	32.5	> 100	64.2	> 100	37.1	> 100	> 100	> 100	> 100	> 100	50.6	> 100
COc1cc(/C=C/C(=O)c2c(-c3ccc(F)cc3)nc3sc(C)nn23)cc(OC)c1OC	1.76	3.52	1.86	3.99	3.24	13.1	2.02	4.51	2.3	7.23	2.63	7	2.61	15	3.46	9.92	4.18	16.5	2.55	7.09
CC/C=C\C[C@H](O)C/C=C1/C(=O)C=C[C@@H]1C/C=C\CCCCO	1.34	2.93	1.88	3.78	7.6	23.2	2.98	15.2	16.8	32.5	3.72	12.9	2.91	> 100	3.25	8.95	2.59	9.36	2.46	6.68
Cc1ccccc1C(C(=O)NC1CCCCC1)N(C(=O)CNc1ncccc1F)c1cccc(F)c1 (stereo not given)	> 100	> 100	> 100	> 100	17.2	> 87.3	> 100	> 100	49.6	> 100	> 100	> 100	> 100	> 100	> 100	> 100	> 100	> 100	> 58.4	> 100
Oc1ccccc1/C=N\NC(=S)N/N=C/c1ccccc1O	1.4	27.7	1.69	8.53	2.94	> 100	3.54	> 100	3.66	21.9	0.451	24.6	1.59	> 100	9.38	> 100	2.6	16.6	13.9	> 100
